We go through 20 compounds from patent publication US12544463B2, “Deuterium substituted positron emission tomography (PET) imaging agents and their pharmacological application” (Five Eleven Pharma Inc., priority 2017, dated 2026).

The target of series [1] is T1, vesicular monoamine transporter 2 (VMAT2) (Rattus norvegicus, UniProt Q01827).
T1 construct: Tissue homogenates of striatum (dissected from rat brain) were prepared; from tissue; host or cells: rat brain striatum homogenate
The series is described as follows: In vitro binding assay for Ki determination, rat striatum homogenates. The note with it: for Ki: Avg ± SD, n = 3, read-out: Ki of cold competing drug; for Kd: value used in Cheng-Prusoff equation. As to the method:
Tissue homogenates of striatum (dissected from rat brain) were prepared in 50 mM of HEPES, pH 7.5, and 0.3 M of sucrose. Compounds were examined for their ability to compete for the binding of ^18F-AV-133 or ^18F-AV-133-D6 (^18F-Ia) (0.15-0.2 nM) at concentrations ranging from 10^−7 to 10^−12 M. The binding assays were performed in glass tubes (12×75 mm) in a final volume of 0.25 mL. […] After incubation for 90 min at room temperature, the bound ligand was separated from the free ligand by filtration through glass fiber filters. The filters were washed three times with 4 mL of ice-cold PBS buffer, pH 7.4 and the radioactivity on the filters was counted with a gamma counter (WIZARD^2, Perkin-Elmer).

In series [2] the target is T2, serotonin transporters (SERT) (Rattus norvegicus, UniProt P31652).
T2 construct: expressed in transfected cells; host or cells: LLC-PK1 (LLC-SERT)
T2 sequence (P31652 whole entry): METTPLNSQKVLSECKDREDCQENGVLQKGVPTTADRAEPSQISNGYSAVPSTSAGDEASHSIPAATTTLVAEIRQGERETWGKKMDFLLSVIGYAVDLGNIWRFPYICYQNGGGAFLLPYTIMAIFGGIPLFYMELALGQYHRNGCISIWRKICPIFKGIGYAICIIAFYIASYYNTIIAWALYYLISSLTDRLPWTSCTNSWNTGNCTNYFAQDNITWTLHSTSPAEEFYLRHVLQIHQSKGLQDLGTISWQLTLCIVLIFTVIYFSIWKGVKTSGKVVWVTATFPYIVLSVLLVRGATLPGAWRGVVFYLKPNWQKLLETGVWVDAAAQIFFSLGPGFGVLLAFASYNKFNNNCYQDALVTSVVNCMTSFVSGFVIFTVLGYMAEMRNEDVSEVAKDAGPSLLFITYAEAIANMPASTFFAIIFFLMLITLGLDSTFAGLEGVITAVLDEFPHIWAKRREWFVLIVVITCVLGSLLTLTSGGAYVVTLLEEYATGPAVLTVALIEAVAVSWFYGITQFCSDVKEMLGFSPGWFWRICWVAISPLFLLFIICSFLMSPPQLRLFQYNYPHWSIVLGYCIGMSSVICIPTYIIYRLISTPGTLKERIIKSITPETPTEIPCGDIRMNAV
The series is described as follows: In vitro binding assay, LLC-SERT membrane homogenates, [^125I]IDAM. The note with it: 0.2 nM [^125I]IDAM, LLC-SERT membranes; read-out: Ki (SERT binding affinity) (converted). As to the method: The membrane homogenates of serotonin transporters (LLC-SERT, which were expressed in a common parental cell line LLC-PK1) were prepared and used for the binding assays. Competitive binding assays were performed in a final volume of 0.25 mL. […] Nonspecific binding was defined with 10 μM citalopram. Incubation was carried out for 60 min at room temperature and the bound ligand was collected on glass fiber filters presoaked with 1% polyethylenimine (SIGMA, St. Louis, MO) and counted in a gamma counter (Wizard^2, Perkin Elmer).

For series [3], the target named is T3, Aβ aggregates of human AD brain homogenates (Homo sapiens, UniProt P05067).
T3 construct: from tissue; host or cells: human Alzheimer's disease brain homogenate
T3 sequence (P05067 672-713 limits assumed): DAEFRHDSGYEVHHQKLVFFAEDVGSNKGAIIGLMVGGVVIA
The series is described as follows: In vitro binding assay for Aβ aggregates of human AD brain homogenates. The note with it: for Ki: Avg ± SD, n = 3, read-out: Ki of cold competing drug; for Kd: value used in Cheng-Prusoff equation. As to the method: Competitive binding assays were performed in 12×75 mm borosilicate glass tubes. The reaction mixture contained 100 μL of AD brain homogenates (20-25 μg), 100 μL of [^18F]AV-45 or [^18F]AV-45-D3 (˜150,000 cpm), and 100 μL of competing compounds (10^−5 to 10^−10 M diluted serially in PBS containing 0.1% bovine serum albumin) in a final volume of […]. Nonspecific binding was defined in the presence of 1 μM of IMPY (6-iodo-2-(4′-dimethylamino-)phenyl-imidazo[1,2-a]pyridine) in the same assay tubes. The mixture was incubated for 60 min at room temperature, and the bound and the free radioactivity were separated by vacuum filtration through Whatman GF/B filters using a Brandel M-24R cell harvester, followed by washing with PBS buffer three times. The radioactivity on the filters was counted with a gamma counter (Wizard^2, Perkin-Elmer). Data were analyzed using the nonlinear least-square curve fitting program LIGAND to determine IC50.

The target of series [4] is T4, Aβ plaques in AD brain tissue homogenates (Homo sapiens, UniProt P05067).
T4 construct: host or cells: AD brain tissue homogenate
T4 sequence (P05067 672-713 limits assumed): as above
The note with it: cited from earlier work; for Ki: read-out: inhibition constant Ki.

The conditions of series [5]: humans, cited from earlier work.
For series [6] the following is noted: cited from earlier work; for Biodistribution Blood / Biodistribution Bone / Biodistribution Brain / Biodistribution Liver / Biodistribution Muscle: normal male mice, Choi, 2009.
The conditions of series [7]: cited from earlier work.

The term Ki denotes a dissociation constant, usually derived from enzyme kinetics or from competition with a known ligand. One may read the Kd as the equilibrium constant for the complex coming apart.

Where two headings read alike, the source gives them in different places.

T1 sequence (Q01827 whole entry): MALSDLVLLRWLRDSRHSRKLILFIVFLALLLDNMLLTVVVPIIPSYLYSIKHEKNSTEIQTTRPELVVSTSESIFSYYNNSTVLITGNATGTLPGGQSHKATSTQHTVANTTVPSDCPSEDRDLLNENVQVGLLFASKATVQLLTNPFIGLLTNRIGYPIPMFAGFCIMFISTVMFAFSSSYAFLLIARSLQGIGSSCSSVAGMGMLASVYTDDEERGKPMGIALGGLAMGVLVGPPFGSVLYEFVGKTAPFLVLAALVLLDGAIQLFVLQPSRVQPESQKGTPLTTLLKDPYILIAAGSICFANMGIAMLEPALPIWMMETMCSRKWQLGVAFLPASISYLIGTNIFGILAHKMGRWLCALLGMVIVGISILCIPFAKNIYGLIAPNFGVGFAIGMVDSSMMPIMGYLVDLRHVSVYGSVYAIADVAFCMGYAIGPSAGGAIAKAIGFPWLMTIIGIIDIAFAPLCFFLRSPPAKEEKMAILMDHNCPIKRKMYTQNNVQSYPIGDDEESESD

For `COc1cc2c(cc1OCCCF)CCN1C[C@@H](CC(C)C)[C@H](O)C[C@H]21` [AV-133, reference compound], the results for the Ki in series [1] (hot ligand ^18F-AV-133-D6) and in series [1] (hot ligand ^18F-AV-133) were 0.26 ± 0.03 nM and 0.33 ± 0.02 nM, respectively. Besides, the Kd in series [1] worked out at 0.11 nM.
`[2H]C([2H])(F)C([2H])([2H])C([2H])([2H])Oc1ccc(Sc2ccc(Cl)cc2N)c(CN(C)C)c1` [III-4-25]: in series [2], the Ki is 0.009 nM.
`[2H]C([2H])([2H])Nc1ccc(/C=C/c2ccc(OCCOCCOCCF)cc2)cc1` [AV-1-D3, IIa2]: the Ki is 4.15 ± 0.75 nM in series [3] (hot ligand ^18F-AV-45-D3) and 3.35 ± 0.88 nM in series [3] (hot ligand ^18F-AV-45).
For the compound `CN(C)Cc1cc(OCCCF)ccc1Sc1ccccc1N` [III-1 (FPBM), reference compound], the Ki in series [2] is 0.052 ± 0.007 nM.
On to `[2H]C([2H])([2H])N(Cc1cc(OCCCF)ccc1Sc1ccccc1N)C([2H])([2H])[2H]` (single isomer, unassigned) [III-2], for which the Ki in series [2] was 0.032 ± 0.013 nM.
As to `[2H]C([2H])(F)C([2H])([2H])C([2H])([2H])Oc1ccc(Sc2ccc(F)cc2N)c(CN(C)C)c1` [III-4-27], the Ki in series [2] was 0.024 nM.
Still for that read-out and setting: the same measure for `CN(C)Cc1cc(OCCCF)ccc1Sc1ccc(F)cc1N`: 0.022 ± 0.016 nM; for `CNCc1cc(OCCCF)ccc1Sc1ccccc1N` [III-6-5]: 5.26 ± 0.66 nM.
`CNc1ccc(/C=C/c2ccc(OCCOCCOCCF)nc2)cc1` [AV-45, reference compound]: the Ki in series [4] was 2.87 ± 0.17 nM; in series [3] (hot ligand ^18F-AV-45-D3) it was 3.24 ± 0.76 nM; in series [3] (hot ligand ^18F-AV-45) it was 4.02 ± 0.22 nM. Moreover, the affinity in series [3], expressed as Kd, was 3.51 nM.
With `CNc1ccc(/C=C/c2ccc(OCCOCCOCCF)nc2)cc1` [^18F-AV-45], in series [5] (within 10 min of the injection), the “decrease of plasma radioactivity” value is “approximately 80%”. In series [5] (within 20 min of the injection), the “decrease of plasma radioactivity” value is reported as “approximately 90%”. In addition, the “initial brain uptake relative to metabolite ^18F-AV-160” value in series [6] (mice, initial uptake) is reported as 1.5 fold. In series [6] (2 min), the “Biodistribution Blood” value is on record as 2.51 ± 0.31 % Dose/g, the “Biodistribution Bone” value is on record as 1.33 ± 0.24 % Dose/g, the “Biodistribution Brain” value is listed as 7.33 ± 1.54 % Dose/g and the “Biodistribution Liver” value is 16.3 ± 5.38 % Dose/g. Moreover, the “Biodistribution Muscle” value in series [6] (2 min) is given as 3.49 ± 0.33 % Dose/g. In series [6] (60 min), the “Biodistribution Blood” value is 2.37 ± 0.27 % Dose/g, the “Biodistribution Bone” value is on record as 3.66 ± 0.30 % Dose/g, the “Biodistribution Brain” value is on record as 1.88 ± 0.14 % Dose/g and the “Biodistribution Liver” value was 11.1 ± 1.83 % Dose/g. For the same compound, the “Biodistribution Muscle” value in series [6] (60 min) was 1.33 ± 0.08 % Dose/g. In series [6] (120 min), the “Biodistribution Blood” value was 1.96 ± 0.23 % Dose/g, the “Biodistribution Bone” value is 6.48 ± 0.34 % Dose/g, the “Biodistribution Brain” value is 1.80 ± 0.20 % Dose/g and the “Biodistribution Liver” value is 8.96 ± 0.28 % Dose/g. For the same compound, in series [6] (120 min), the “Biodistribution Muscle” value is listed as 1.02 ± 0.07 % Dose/g. Moreover, in series [6] (180 min), the “Biodistribution Blood” value is listed as 1.39 ± 0.13 % Dose/g, the “Biodistribution Bone” value is 7.83 ± 1.08 % Dose/g, the “Biodistribution Brain” value is 1.48 ± 0.15 % Dose/g and the “Biodistribution Liver” value is reported as 5.39 ± 0.31 % Dose/g. Moreover, in series [6] (180 min), the “Biodistribution Muscle” value is 0.78 ± 0.09 % Dose/g. In series [7] (mice, 30 min after intravenous injection), the “parent remained in the plasma” value is 30%. Further, the “biologic T1/2 in mouse plasma” value in series [7] (mouse plasma, estimated) was “less than 30 min”.
For the compound `[2H]C([2H])(F)C([2H])([2H])C([2H])([2H])Oc1ccc(Sc2ccccc2N)c(CN(C)C)c1` (single isomer, unassigned) [III-4-2], the Ki in series [2] was 0.14 ± 0.06 nM.
For the compound `[2H]C([2H])(F)C([2H])([2H])C([2H])([2H])Oc1cc2c(cc1OC)[C@H]1C[C@@H](O)[C@H](CC(C)C)CN1CC2` [Ia (AV-133-D6), (2R,3R,11R)-9-(3-Fluoropropoxy-[1,1,2,2,3,3-D6])-3-isobutyl-10-methoxy-2,3,4,6,7,11b-hexahydro-1H-pyrido[2,1-a]isoquinolin-2-ol], the Ki in series [1] (hot ligand ^18F-AV-133-D6) came out at 0.33 ± 0.06 nM; in series [1] (hot ligand ^18F-AV-133) it was 0.32 ± 0.07 nM. Besides, the Kd in series [1] worked out at 0.11 nM.
On to `CN(C)Cc1cc(O)ccc1Sc1ccc(Br)cc1N` [III-4-18], for which, in series [2], the Ki is 0.02 nM.
In the case of `Nc1ccc(/C=C/c2ccc(OCCOCCOCC[18F])nc2)cc1` [^18F-AV-160], the brain uptake in series [6] (mice, 2 min after injection) is 4.5 % ID/g; in series [6] (mice, 60 min) it was 1.8 % ID/g. The “share of the plasma metabolites” value in series [7] (mice, 30 min after injection) was “about 48%”.
For `NCc1cc(OCCCF)ccc1Sc1ccccc1N` [III-5-5], the Ki in series [2] was 39.3 ± 11.9 nM.
Consider `Nc1ccc(C=Cc2ccc(OCCOCCOCCF)nc2)cc1` [AV-160], for which, in series [4], the “reduction of binding affinity vs nonradioactive AV-45” value is recorded as no less than 20 fold and the Ki is 54 ± 5 nM.
With `CN(C)Cc1cc(O)ccc1Sc1ccc(F)cc1N` [III-4-19], the Ki in series [2] is 0.22 nM.
On the same count and under the same terms, in the case of `[2H]C([2H])([2H])N(Cc1cc(O)ccc1Sc1ccccc1N)C([2H])([2H])[2H]` [III-2-4] it was 2.02 ± 0.54 nM; in that of `[2H]C([2H])(F)C([2H])([2H])C([2H])([2H])Oc1ccc(Sc2ccc(I)cc2N)c(CN(C)C)c1` [III-4-28], 0.008 nM.
For `[2H]C([2H])([2H])Nc1ccc(/C=C/c2ccc(OCCOCCOCCF)nc2)cc1` [AV-45-D3, IIa1], the Ki in series [3] (hot ligand ^18F-AV-45-D3) was found to be 3.25 ± 0.82 nM; in series [3] (hot ligand ^18F-AV-45), 3.44 ± 1.22 nM. The same compound showed a Kd in series [3] of 3.51 nM.
